This passage reports inhibition and IC50 results from US20100256357A1, “HETEROCYCLES USEFUL AS INHIBITORS OF CARBONIC ANHYDRASE” (Agouron Pharmaceuticals, Inc., priority 2006, published 2010).

For the test, the target named is T1, human CA-II (Homo sapiens, UniProt P00918).
T1 construct: purchased Sigma-Aldrich C6165
The test is described as follows: Carbonic Anhydrase-II (CA-II) Fluorimetric Assay-IC50 Determination. The test is classed as biochemical. The settings on record: for inhibition at 0.1 µM: at 100 nM (c7); for inhibition at 0.1 µM / inhibition at 0.01 µM: read-out: CA-II % inhibition at concentration of column 7; for inhibition at 0.01 µM: at 10 nM (c7). Here is the method:
Carbonic Anhydrase-II (CA-II) Fluorimetric Assay-IC50 Determination
Compounds were diluted in DMSO at the concentration of 1 mM, then 50 μM and transferred to a 96-well plate for further dilutions (1:3 dilution, 11 points) in duplicate. Highest final concentration of compound in this CA-II Fluorimetric assay is 1 μM. Assays were conducted in a final volume of 100 μL in 50 mM Tris/HCl (pH 7.6), 100 mM Na2SO4 and 0.005% Tween-20 in a 96-well black assay plate. Fluorescein diacetate was used as the substrate. Enzyme inhibition was determined by pipetting 8 μL of human CA-II (5 nM, from Sigma-Aldrich, product #: C6165) into assay plate contained 2 μL of compound and 2 μL of substrate (10 μM) in 88 μL of assay buffer. The rate of the hydrolysis of fluorescein diacetate were measured spectrophometrically at 488 nm (excitation), 538 nm (emission) and 530 nm (cutoff) using a Molecular Devices SpectraMax M2 fluorescence reader at 25° C.

Where [1] appears, read: given instead of Kd (ND), read-out: CA-II IC50.
[2] abbreviates: Kd ND, IC50 given instead, read-out: CA-II IC50 (where Kd is ND).

Like-named read-outs stand apart in the source and are kept apart here.

For orientation: IC50 means the concentration that gives 50% inhibition.

Regarding `CN(C(=O)c1nc(Cc2ccccc2)n(-c2ccc(S(N)(=O)=O)cc2)n1)C(C1CC1)C1CC1` [Example R-28, 1-[4-(aminosulfonyl)phenyl)-5-benzyl-N-(dicyclopropylmethyl)-N-methyl-1H-124-triazole-3-carboxamide], the inhibition at 0.1 µM came out at 99%.
With `Cc1cc(C)n(CCN(C)C(=O)c2nc(Cc3ccccc3)n(-c3ccc(S(N)(=O)=O)cc3)n2)n1` [Example R-66, 1-[4-(aminosulfonyl)phenyl]-5-benzyl-N-[2-(35-dimethyl-1H-pyrazol-1-yl)ethyl]-N-methyl-1H-124-triazole-3-carboxamide], the inhibition at 0.01 µM amounted to 88%. Moreover, the IC50 under setting [1] was found to be 3.55 nM.
Regarding `Cc1nc(CN(C)C(=O)c2nc(Cc3ccccc3)n(-c3ccc(S(N)(=O)=O)cc3)n2)cs1` [Example R-60, 1-[4-(aminosulfonyl)phenyl]-5-benzyl-N-methyl-N-[(2-methyl-13-thiazol-4-yl)methyl]-1H-124-triazole-3-carboxamide], the inhibition at 0.01 µM came out at 92%.
For the molecule `CCN(CCC#N)C(=O)c1nc(Cc2ccccc2)n(-c2ccc(S(N)(=O)=O)cc2)n1` [Example R-41, 1[4-(aminosulfonyl)phenyl]-5-benzyl-N-(2-cyanoethyl)-N-ethyl-1H-124-triazole-3-carboxamide], the inhibition at 0.1 µM was 99%.
As to `CC(C)(C)N(CCC#N)C(=O)c1nc(Cc2ccccc2)n(-c2ccc(S(N)(=O)=O)cc2)n1` [Example R-96, 1-[4-(aminosulfonyl)phenyl]-5-benzyl-N-(tert-butyl)-N-(2-cyanoethyl)-1H-124-triazole-3-carboxamide], under setting [2], the IC50 amounted to 3.34 nM.
On to `CN(Cc1nc2ccc(F)cc2[nH]1)C(=O)c1nc(Cc2ccccc2)n(-c2ccc(S(N)(=O)=O)cc2)n1` [Example R-49, 1-[4-(aminosulfonyl)phenyl]-5-benzyl-N-[(6-fluoro-1H-benzimidazol-2-yl)methyl]-N-methyl-1H-124-triazole-3-carboxamide], for which the inhibition at 0.01 µM amounted to 96%.
Turning to `CCN(CCN(C)C)C(=O)c1nc(Cc2ccccc2)n(-c2ccc(S(N)(=O)=O)cc2)n1` [Example R-43, 1-[4-(aminosulfonyl)phenyl]-5-benzyl-N-[2-(dimethylamino)ethyl]-N-ethyl-1H-124-triazole-3-carboxamide], the inhibition at 0.1 µM was 100%.
In the case of `CN(C(=O)c1nc(Cc2ccccc2)n(-c2ccc(S(N)(=O)=O)cc2)n1)C1CCCC1` [Example R-30, 1-[4-(aminosulfonyl)phenyl]-5-benzyl-N-cyclopentyl-N-methyl-1H-124-triazole-3-carboxamide], the inhibition at 0.1 µM amounted to 100%. The IC50 under setting [1] was 2.45 nM.
Consider `CN(CCc1ccccc1)C(=O)c1nc(Cc2ccccc2)n(-c2ccc(S(N)(=O)=O)cc2)n1` [Example R-48, 1-[4-(aminosulfonyl)phenyl]-5-benzyl-N-methyl-N-(2-phenylethyl)-1H-124-triazole-3-carboxamide], for which the inhibition at 0.01 µM was 97%.
As to `NS(=O)(=O)c1ccc(-n2nc(C(=O)N3CC(Cc4ccccc4)C3)nc2Cc2ccccc2)cc1` [Example R-91, 4-{5-benzyl-3-[(3-benzylazetidin-1-yl)carbonyl]-1H-124-triazol-1-yl}benzenesulfonamide], under setting [2], the half-maximal inhibitory concentration (IC50) came out at 3.19 nM.
On to `CN(CCc1cn[nH]c1)C(=O)c1nc(Cc2ccccc2)n(-c2ccc(S(N)(=O)=O)cc2)n1` [Example R-62, 1-[4-(aminosulfonyl)phenyl]-5-benzyl-N-methyl-N-[2-(1H-pyrazol-4-yl)ethyl]-1H-124-triazole-3-carboxamide], for which the inhibition at 0.01 µM is 96%.
For `NS(=O)(=O)c1ccc(-n2nc(C(=O)N3CCCC3Cc3cccnc3)nc2Cc2ccccc2)cc1` (centres unmarked) [Example R-68, 4-(5-benzyl-3-{[2-(pyridin-3-ylmethyl)pyrrolidin-1-yl]carbonyl}-1H-124-triazol-1-yl)benzenesulfonamide], the inhibition at 0.01 µM stood at 92%. In addition, the IC50 under setting [1] stood at 3.75 nM.
Turning to `CN(CC(F)(F)F)C(=O)c1nc(Cc2ccccc2)n(-c2ccc(S(N)(=O)=O)cc2)n1` [Example R-101, 1-[4-(aminosulfonyl)phenyl]-5-benzyl-N-methyl-N-(222-trifluoroethyl)-1H-124-triazole-3-carboxamide], the IC50 under setting [2] was 3.48 nM.
Take `NS(=O)(=O)c1ccc(-n2nc(C(=O)N3CCOCC3)nc2Cc2ccccc2)cc1` [Example R-32, 4-[5-benzyl-3-(morpholin-4-ylcarbonyl)-1H-124-triazol-1-yl]benzenesulfonamide]: the inhibition at 0.1 µM was 98%. Under setting [1], the IC50 is 3.56 nM.
Take `NS(=O)(=O)c1ccc(-n2nc(C(=O)NC3Cc4ccccc4C3)nc2Cc2ccccc2)cc1` [Example R-33, 1-[4-(aminosulfonyl)phenyl]-5-benzyl-N-(23-dihydro-1H-inden-2-yl)-1H-124-triazole-3-carboxamide]: the inhibition at 0.1 µM was 101%.
Turning to `NS(=O)(=O)c1ccc(-n2nc(C(=O)N3C[C@@H](F)[C@H](F)C3)nc2Cc2ccccc2)cc1` [Example R-111, 4-(5-benzyl-3-{[(3R4R)-34-difluoropyrrolidin-1-yl]carbonyl}-1H-124-triazol-1-yl)benzenesulfonamide], the IC50 under setting [2] stood at 3.14 nM.
`NS(=O)(=O)c1ccc(-n2nc(C(=O)N3CC(CO)C(c4ccccn4)C3)nc2Cc2ccccc2)cc1` (centres unmarked) [Example R-59, 4-(5-benzyl-3-{[(3R4R)-3-(hydroxymethyl)-4-pyridin-2-ylpyrrolidin-1-yl]carbonyl}-1H-124-triazol1-yl)benzenesulfonamide]: the inhibition at 0.01 µM was found to be 97%.
As for `Cc1csc(CN(C)C(=O)c2nc(Cc3ccccc3)n(-c3ccc(S(N)(=O)=O)cc3)n2)n1` [Example R-56, 1-[4-(aminosulfonyl)phenyl]-5-benzyl-N-methyl-N-[(4-methyl-13-thiazol-2-yl)methyl]-1H-124-triazole-3-carboxamide], the inhibition at 0.01 µM was 95%.
As for `CCCCN(CCC)C(=O)c1nc(Cc2ccccc2)n(-c2ccc(S(N)(=O)=O)cc2)n1` [Example R-36, 1-[4-(aminosulfonyl)phenyl]-5-benzyl-N-butyl-N-propyl-1H-124-triazole-3-carboxamide], the inhibition at 0.1 µM stood at 100%. Also, the IC50 under setting [1] was 3.12 nM.
Regarding `CCc1nc(CN(C)C(=O)c2nc(Cc3ccccc3)n(-c3ccc(S(N)(=O)=O)cc3)n2)no1` [Example R-70, 1-[4-(aminosulfonyl)phenyl]-5-benzyl-N-[(5-ethyl-124-oxadiazol-3-yl)methyl]-N-methyl-1H-124-triazole-3-carboxamide], the inhibition at 0.01 µM was determined as 94%. The IC50 under setting [1] is 3.06 nM.
Consider `CCCc1cc(CN(C)C(=O)c2nc(Cc3ccccc3)n(-c3ccc(S(N)(=O)=O)cc3)n2)n[nH]1` [Example R-51, 1-[4-(aminosulfonyl)phenyl]-5-benzyl-N-methyl-N-[(5-propyl-1H-pyrazol-3-yl)methyl]-1H-124-triazole-3-carboxamide], for which the inhibition at 0.01 µM was 97%.
As to `CC(C)N(CC(O)c1ccccc1)C(=O)c1nc(Cc2ccccc2)n(-c2ccc(S(N)(=O)=O)cc2)n1` (centres unmarked) [Example R-45, 1-[4-(aminosulfonyl)phenyl]-5-benzyl-N-(2-hydroxy-2-phenylethyl)-N-isopropyl-1H-124-triazole-3-carboxamide], the inhibition at 0.01 µM is 95%.
Regarding `CC(C)C1CCCCN1C(=O)c1nc(Cc2ccccc2)n(-c2ccc(S(N)(=O)=O)cc2)n1` (centres unmarked) [Example R-104], the IC50 under setting [2] came out at 3.51 nM.
